Counter-ions that a name gives are not always drawn. Like-named read-outs stand apart in the source and are kept apart here. Marks after values point to notes of the source that are not given here.
What was measured:
rat GluN1/GluN2B [1] = target: T1, rat GluN1/GluN2B (Rattus norvegicus, UniProt P35439+Q00960); test: cell-based; type: cell-based; conditions: for nH (Hill slope): 30 µM glycine; for nH (Hill slope, inhibition): 100 µM glutamate plus 30 µM glycine
human GluN1/GluN2C = human GluN1/GluN2C (Homo sapiens, UniProt Q05586+Q14957, INS1047EPP); test: cell-based; type: cell-based
human GluN1/GluN2B = human GluN1/GluN2B (Homo sapiens, UniProt Q05586+Q13224); test: cell-based; type: cell-based; conditions: for nH (Hill slope) / EC50 / nH (Hill slope, inhibition): human GluN1/GluN2B; for EC50 / nH (Hill slope, inhibition): -40 mV; for nH (Hill slope, inhibition): 100 µM glutamate plus 30 µM glycine
rat GluN1/GluN2A [2] = target: T2, rat GluN1/GluN2A (Rattus norvegicus, UniProt P35439+Q00959); test: Two-electrode voltage-clamp recordings, recombinant receptors in Xenopus oocytes; type: cell-based; conditions: for nH (Hill slope): 30 µM glycine; for nH (Hill slope, inhibition): 100 µM glutamate plus 30 µM glycine
rat GluN1/GluN2D [3] = target: T3, rat GluN1/GluN2D (Rattus norvegicus, UniProt P35439+Q62645); type: cell-based; conditions: for nH (Hill slope): 30 µM glycine
human GluN1/GluN2D [4] = target: T4, human GluN1/GluN2D (Homo sapiens, UniProt O15399+Q05586); test: cell-based; type: cell-based
[5] = test system: human and rat NMDA receptor subtypes; test: Two-electrode voltage-clamp, relative agonist efficacy across subtypes; type: cell-based; conditions: range over human and rat subtypes; same recording; 30 µM glycine
human GluN1/GluN2A = human GluN1/GluN2A (Homo sapiens, UniProt Q05586+Q12879); type: cell-based; conditions: for nH (Hill slope, inhibition): 100 µM glutamate plus 30 µM glycine
Sequence of human GluN1/GluN2A (Q12879 23-1464, other chains not shown): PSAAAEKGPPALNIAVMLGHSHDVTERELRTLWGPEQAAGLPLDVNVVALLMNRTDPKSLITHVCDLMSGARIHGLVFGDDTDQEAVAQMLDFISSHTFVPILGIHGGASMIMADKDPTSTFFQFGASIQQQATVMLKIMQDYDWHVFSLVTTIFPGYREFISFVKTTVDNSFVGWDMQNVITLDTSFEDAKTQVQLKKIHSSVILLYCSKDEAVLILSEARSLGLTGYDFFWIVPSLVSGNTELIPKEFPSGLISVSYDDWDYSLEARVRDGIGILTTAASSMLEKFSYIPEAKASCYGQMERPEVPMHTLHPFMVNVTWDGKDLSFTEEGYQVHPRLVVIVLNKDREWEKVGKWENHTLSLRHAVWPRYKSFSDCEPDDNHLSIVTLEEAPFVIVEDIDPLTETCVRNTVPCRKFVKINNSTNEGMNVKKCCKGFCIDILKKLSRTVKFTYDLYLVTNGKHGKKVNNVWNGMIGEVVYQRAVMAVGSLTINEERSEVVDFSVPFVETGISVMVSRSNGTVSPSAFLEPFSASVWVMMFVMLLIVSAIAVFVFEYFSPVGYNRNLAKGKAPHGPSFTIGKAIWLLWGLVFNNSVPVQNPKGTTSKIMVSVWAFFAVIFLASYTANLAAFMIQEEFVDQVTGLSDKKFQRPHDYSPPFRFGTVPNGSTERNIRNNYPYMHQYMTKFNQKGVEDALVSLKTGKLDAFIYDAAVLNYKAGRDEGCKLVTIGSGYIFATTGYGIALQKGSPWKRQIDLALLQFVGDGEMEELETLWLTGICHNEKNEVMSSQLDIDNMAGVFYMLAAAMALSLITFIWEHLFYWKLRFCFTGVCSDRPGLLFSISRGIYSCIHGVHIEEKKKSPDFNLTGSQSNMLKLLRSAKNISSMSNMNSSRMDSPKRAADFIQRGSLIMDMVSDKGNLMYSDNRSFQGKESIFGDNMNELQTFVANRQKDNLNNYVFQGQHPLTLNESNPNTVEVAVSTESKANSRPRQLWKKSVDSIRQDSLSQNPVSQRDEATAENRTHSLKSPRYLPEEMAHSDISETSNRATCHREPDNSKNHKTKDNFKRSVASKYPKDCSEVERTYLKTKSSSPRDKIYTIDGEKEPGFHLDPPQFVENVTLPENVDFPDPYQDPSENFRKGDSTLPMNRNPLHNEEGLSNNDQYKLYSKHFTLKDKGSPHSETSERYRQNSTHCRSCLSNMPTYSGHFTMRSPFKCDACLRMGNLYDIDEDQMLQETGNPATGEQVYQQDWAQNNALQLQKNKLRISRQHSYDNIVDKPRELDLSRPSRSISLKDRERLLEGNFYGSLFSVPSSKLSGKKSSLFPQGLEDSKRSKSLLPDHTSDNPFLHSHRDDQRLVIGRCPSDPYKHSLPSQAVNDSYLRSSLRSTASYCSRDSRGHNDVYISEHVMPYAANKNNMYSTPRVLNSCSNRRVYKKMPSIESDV

rat GluN1/GluN2C = rat GluN1/GluN2C (Rattus norvegicus, UniProt P35439+Q00961); type: cell-based; conditions: for nH (Hill slope): 30 µM glycine
Sequence of rat GluN1/GluN2C (Q00961 20-1237, other chains not shown): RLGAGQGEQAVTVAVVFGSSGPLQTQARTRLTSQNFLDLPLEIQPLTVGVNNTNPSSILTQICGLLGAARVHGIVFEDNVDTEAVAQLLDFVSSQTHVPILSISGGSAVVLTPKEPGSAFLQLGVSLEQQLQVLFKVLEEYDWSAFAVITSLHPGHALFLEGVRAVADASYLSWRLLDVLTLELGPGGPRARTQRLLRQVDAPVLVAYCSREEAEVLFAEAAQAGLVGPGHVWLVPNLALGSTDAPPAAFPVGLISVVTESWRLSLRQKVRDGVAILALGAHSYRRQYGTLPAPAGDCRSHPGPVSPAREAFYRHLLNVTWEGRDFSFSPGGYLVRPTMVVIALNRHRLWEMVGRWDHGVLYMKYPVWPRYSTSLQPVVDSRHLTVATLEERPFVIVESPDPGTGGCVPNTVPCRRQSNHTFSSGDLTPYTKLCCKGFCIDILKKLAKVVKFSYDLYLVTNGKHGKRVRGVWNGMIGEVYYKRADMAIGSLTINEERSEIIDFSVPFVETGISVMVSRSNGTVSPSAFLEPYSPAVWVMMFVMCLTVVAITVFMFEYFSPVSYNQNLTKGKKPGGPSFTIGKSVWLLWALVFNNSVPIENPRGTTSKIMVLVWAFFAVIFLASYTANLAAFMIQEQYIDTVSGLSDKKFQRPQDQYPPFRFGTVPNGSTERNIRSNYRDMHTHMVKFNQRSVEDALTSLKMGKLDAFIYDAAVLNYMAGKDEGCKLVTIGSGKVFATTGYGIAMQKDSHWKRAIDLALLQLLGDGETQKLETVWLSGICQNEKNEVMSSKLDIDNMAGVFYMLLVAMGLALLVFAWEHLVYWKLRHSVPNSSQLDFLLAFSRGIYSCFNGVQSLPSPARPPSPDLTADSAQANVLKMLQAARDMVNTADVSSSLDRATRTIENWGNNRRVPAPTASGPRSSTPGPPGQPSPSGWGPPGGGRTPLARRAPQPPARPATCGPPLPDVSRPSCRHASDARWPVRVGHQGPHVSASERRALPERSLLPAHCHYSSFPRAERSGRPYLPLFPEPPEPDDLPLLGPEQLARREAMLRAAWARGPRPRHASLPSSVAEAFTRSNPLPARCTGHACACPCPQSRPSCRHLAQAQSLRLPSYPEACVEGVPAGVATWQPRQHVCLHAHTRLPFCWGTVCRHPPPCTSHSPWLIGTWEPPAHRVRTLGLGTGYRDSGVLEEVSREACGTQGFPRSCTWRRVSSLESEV

human GluN1/GluN2D [6] = target: T4, human GluN1/GluN2D; conditions: HEK293 cells, 2 mM extracellular Ca2+, ref Hess et al., 1998; cited from earlier work
rat GluN1/GluN2B [7] = target: T1, rat GluN1/GluN2B; conditions: HEK293 cells, 2 mM extracellular Ca2+, ref Vicini et al., 1998; cited from earlier work
rat GluN1/GluN2A [8] = target: T2, rat GluN1/GluN2A; conditions: HEK293 cells, 2 mM extracellular Ca2+, ref Vicini et al., 1998; cited from earlier work
rat GluN1/GluN2D [9] = target: T3, rat GluN1/GluN2D; conditions: Table 2, ref Hansen and Traynelis, 2011; cited from earlier work
[10] = rat GluN1/GluN2D, 100 µM glutamate plus 30 µM glycine
[11] = human GluN1/GluN2D, 100 µM glutamate plus 30 µM glycine
[12] = rat GluN1/GluN2C, 100 µM glutamate plus 30 µM glycine
[13] = rat GluN1/GluN2D, 100 µM glutamate plus 30 µM glycine, -40 mV
[14] = rat GluN1/GluN2C, 100 µM glutamate plus 30 µM glycine, -40 mV
[15] = human GluN1/GluN2C, 100 µM glutamate plus 30 µM glycine, -40 mV
[16] = human GluN1/GluN2D, 100 µM glutamate plus 30 µM glycine, -40 mV

T1 sequence (Q00960 27-1482, other chains not shown): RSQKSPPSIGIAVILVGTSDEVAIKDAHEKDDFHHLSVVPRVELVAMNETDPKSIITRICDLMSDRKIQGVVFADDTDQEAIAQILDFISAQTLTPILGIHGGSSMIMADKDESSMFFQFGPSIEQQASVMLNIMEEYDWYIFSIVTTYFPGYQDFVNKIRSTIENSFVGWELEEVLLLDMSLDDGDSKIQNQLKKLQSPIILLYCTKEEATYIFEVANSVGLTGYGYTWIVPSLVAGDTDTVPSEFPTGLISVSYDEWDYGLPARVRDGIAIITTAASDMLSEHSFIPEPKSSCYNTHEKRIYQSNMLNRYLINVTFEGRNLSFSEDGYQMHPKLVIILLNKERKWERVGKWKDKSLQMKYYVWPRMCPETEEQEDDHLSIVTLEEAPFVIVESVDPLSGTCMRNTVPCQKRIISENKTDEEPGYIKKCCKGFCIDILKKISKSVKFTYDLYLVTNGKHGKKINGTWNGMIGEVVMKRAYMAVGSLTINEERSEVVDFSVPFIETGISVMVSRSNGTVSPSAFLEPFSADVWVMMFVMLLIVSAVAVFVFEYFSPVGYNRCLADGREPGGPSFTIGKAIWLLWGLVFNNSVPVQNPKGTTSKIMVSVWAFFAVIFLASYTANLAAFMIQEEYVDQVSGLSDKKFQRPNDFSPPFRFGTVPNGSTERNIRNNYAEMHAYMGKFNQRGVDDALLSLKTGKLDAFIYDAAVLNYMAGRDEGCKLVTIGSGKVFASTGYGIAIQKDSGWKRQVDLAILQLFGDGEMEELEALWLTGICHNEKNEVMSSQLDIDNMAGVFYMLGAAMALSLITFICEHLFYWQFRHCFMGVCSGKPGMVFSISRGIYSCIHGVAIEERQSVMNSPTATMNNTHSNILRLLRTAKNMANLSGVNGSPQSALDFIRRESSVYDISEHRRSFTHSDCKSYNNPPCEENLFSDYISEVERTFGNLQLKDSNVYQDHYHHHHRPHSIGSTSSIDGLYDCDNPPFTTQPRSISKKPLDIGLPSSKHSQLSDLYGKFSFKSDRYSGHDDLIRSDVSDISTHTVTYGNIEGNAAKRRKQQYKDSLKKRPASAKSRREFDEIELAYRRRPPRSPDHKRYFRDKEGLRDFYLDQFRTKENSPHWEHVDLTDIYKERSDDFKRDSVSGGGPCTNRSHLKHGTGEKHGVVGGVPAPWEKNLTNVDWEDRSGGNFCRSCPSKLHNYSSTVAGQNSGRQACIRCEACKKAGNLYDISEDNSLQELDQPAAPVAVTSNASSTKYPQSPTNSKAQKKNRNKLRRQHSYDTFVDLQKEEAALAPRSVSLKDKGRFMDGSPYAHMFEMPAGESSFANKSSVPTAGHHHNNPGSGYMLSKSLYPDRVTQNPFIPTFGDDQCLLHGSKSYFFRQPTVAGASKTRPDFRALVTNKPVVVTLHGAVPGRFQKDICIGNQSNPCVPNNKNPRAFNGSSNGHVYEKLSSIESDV

With CN[C@H](CC(=O)O)C(=O)O [NMDA, N-methyl-D-aspartate] the “nH (Hill slope)” value (rat GluN1/GluN2B [1]; rat GluN1/GluN2B) was 1.7, the EC50 (rat GluN1/GluN2B [1]; rat GluN1/GluN2B, continuous presence of 30 µM glycine, -40 mV) was 21 ± 4 µM and the EC50 (human GluN1/GluN2C) was 19 ± 1 µM. For the same compound, the “nH (Hill slope)” value (human GluN1/GluN2C) was 1.2, the “nH (Hill slope)” value (human GluN1/GluN2B; 30 µM glycine) was 1.4 and the EC50 (human GluN1/GluN2B; continuous presence of 30 µM glycine) was 23 ± 2 µM. For the same compound, the “nH (Hill slope)” value (rat GluN1/GluN2A [2]; rat GluN1/GluN2A) was 1.5, the EC50 (rat GluN1/GluN2A [2]; rat GluN1/GluN2A, continuous presence of 30 µM glycine, -40 mV) was 71 ± 9 µM and the “nH (Hill slope)” value (rat GluN1/GluN2D [3]; rat GluN1/GluN2D) was 1.7. For the same compound, the EC50 (rat GluN1/GluN2D [3]; rat GluN1/GluN2D, continuous presence of 30 µM glycine, -40 mV) was 7.9 ± 0.9 µM, the EC50 (human GluN1/GluN2D [4]) was 6.7 ± 0.2 µM and the “nH (Hill slope)” value (human GluN1/GluN2D [4]) was 2.1. The “maximal activation compared to maximal activation by the full agonist glutamate” value [5] was 69–89%, the “nH (Hill slope)” value (human GluN1/GluN2A; 30 µM glycine) was 1.3 and the EC50 (human GluN1/GluN2A; continuous presence of 30 µM glycine, -40 mV) was 68 ± 3 µM. The “nH (Hill slope)” value (rat GluN1/GluN2C; rat GluN1/GluN2C) was 1.4 and the EC50 (rat GluN1/GluN2C; rat GluN1/GluN2C, continuous presence of 30 µM glycine, -40 mV) was 19 ± 2 µM.
For CC(C(O)c1ccc(O)cc1)N1CCC(Cc2ccccc2)CC1 (stereo not drawn) [ifenprodil, (1R*,2S*)-erythro-2-(4-benzylpiperidino)-1-(4-hydroxyphenyl)-1-propanol hemitartrate], the “nH (Hill slope, inhibition)” value (rat GluN1/GluN2B [1]; rat GluN1/GluN2B, -40 mV) was 1.2, the “nH (Hill slope, inhibition)” value (human GluN1/GluN2B) was 1.1 and the “nH (Hill slope, inhibition)” value (rat GluN1/GluN2A [2]; rat GluN1/GluN2A, -40 mV) was 1.2.
For NCC(=O)O [glycine], the EC50 (human GluN1/GluN2C) was 0.25 ± 0.01 µM, the “nH (Hill slope)” value (human GluN1/GluN2C) was 1.6 and the “nH (Hill slope)” value (human GluN1/GluN2B; 100 µM glutamate) was 1.7. For the same compound, the EC50 (human GluN1/GluN2B; continuous presence of 100 µM glutamate) was 0.29 ± 0.04 µM, the EC50 (human GluN1/GluN2D [4]) was 0.12 ± 0.01 µM and the “nH (Hill slope)” value (human GluN1/GluN2D [4]) was 1.8. For the same compound, the “nH (Hill slope)” value (human GluN1/GluN2A; 100 µM glutamate) was 1.3 and the “τdeactivation glycine (weighted time constant)” value (human GluN1/GluN2D [6]) was 1800 ^a ms.
With OC(CN1CCC(Cc2ccc(F)cc2)CC1)c1ccc(Cl)cc1 (stereo not drawn) [eliprodil, α-(4-chlorophenyl)-4-[(4-fluorophenyl)methyl]-1-piperidineethanol] the “nH (Hill slope, inhibition)” value (rat GluN1/GluN2B [1]; rat GluN1/GluN2B, -40 mV) was 1.2 and the “nH (Hill slope, inhibition)” value (human GluN1/GluN2B) was 1.3.
For N[C@@H](CCC(=O)O)C(=O)O [glutamate, L-glutamic acid], the “nH (Hill slope)” value (rat GluN1/GluN2B [1]; rat GluN1/GluN2B) is given as 1.5, the “nH (Hill slope)” value (human GluN1/GluN2C) is given as 1.6 and the “τdeactivation glutamate (weighted time constant)” value (“τdeactivation glutamate” for short) (rat GluN1/GluN2B [7]) is given as 287 ^k ms. For the same compound, the “nH (Hill slope)” value (human GluN1/GluN2B; 30 µM glycine) was 1.8, the “nH (Hill slope)” value (rat GluN1/GluN2A [2]; rat GluN1/GluN2A) was 1.4 and the “nH (Hill slope)” value (rat GluN1/GluN2D [3]; rat GluN1/GluN2D) was 1.5. For the same compound, the “nH (Hill slope)” value (human GluN1/GluN2D [4]) was 1.5, the “τdeactivation glutamate” value (rat GluN1/GluN2A [8]) was 54 ^k ms and the “τdeactivation following removal of glutamate” value (rat GluN1/GluN2D [9]) was > 2 s. The “nH (Hill slope)” value (human GluN1/GluN2A; 30 µM glycine) was 1.3, the “nH (Hill slope)” value (rat GluN1/GluN2C; rat GluN1/GluN2C) was 1.4 and the “τdeactivation glutamate” value (human GluN1/GluN2D [6]) was 6300 ^a ms.
For CC12CC3CC(C)(C1)CC(N)(C3)C2 [memantine, memantine hydrochloride], the “nH (Hill slope, inhibition)” value (human GluN1/GluN2C) was 1.0, the “nH (Hill slope, inhibition)” value (human GluN1/GluN2B) was 1.0 and the “nH (Hill slope, inhibition)” value (human GluN1/GluN2D [4]) was 0.9. The “nH (Hill slope, inhibition)” value (human GluN1/GluN2A; -40 mV) was 1.1.
In the case of COc1ccc(OCC2c3cc(OC)c(OC)cc3CCN2C(=O)c2cccc(Cl)c2)cc1 (centres unmarked) [CIQ, (3-chlorophenyl) [3,4-dihydro-6,7-dimethoxy-1-[(4-methoxyphenoxy)methyl]-2(1H)-isoquinolinyl]methanone], the “nH (Hill slope, potentiation)” value (human GluN1/GluN2C; human GluN1/GluN2C, 100 µM glutamate plus 30 µM glycine) is reported as 1.6, the “maximal potentiation compared to NMDA receptor currents in the absence of CIQ” value (rat GluN1/GluN2D [3]; [10]) is reported as 240 ± 20 and the “nH (Hill slope, potentiation)” value (rat GluN1/GluN2D [3]; [10]) is reported as 1.3. The “maximal potentiation compared to NMDA receptor currents in the absence of CIQ” value (human GluN1/GluN2D [4]; [11]) was 250 ± 10, the “nH (Hill slope, potentiation)” value (human GluN1/GluN2D [4]; [11]) was 1.3 and the “maximal potentiation compared to NMDA receptor currents in the absence of CIQ” value (rat GluN1/GluN2C; [12]) was 260 ± 30. The “nH (Hill slope, potentiation)” value (rat GluN1/GluN2C; [12]) was 1.1.
For CN[C@]1(c2ccccc2Cl)CCCCC1=O [(+)ketamine, S-(+)-ketamine hydrochloride], the “IC50 fold lower at rat compared to corresponding human subtype” value (rat GluN1/GluN2B [1]; GluN1/GluN2B, rat vs human) was 1.6 fold, the “nH (Hill slope, inhibition)” value (rat GluN1/GluN2B [1]; rat GluN1/GluN2B, -40 mV) was 0.9 and the IC50 (human GluN1/GluN2C) was 0.79 ± 0.04 µM. For the same compound, the “nH (Hill slope, inhibition)” value (human GluN1/GluN2C) was 0.9, the “nH (Hill slope, inhibition)” value (human GluN1/GluN2B) was 1.0 and the “nH (Hill slope, inhibition)” value (rat GluN1/GluN2A [2]; rat GluN1/GluN2A, -40 mV) was 1.0. The “IC50 fold lower at rat compared to corresponding human subtype” value (rat GluN1/GluN2D [3]; GluN1/GluN2D, rat vs human) was 1.7 fold, the “nH (Hill slope, inhibition)” value (rat GluN1/GluN2D [3]; [13]) was 1.0 and the IC50 (human GluN1/GluN2D [4]) was 2.4 ± 0.1 µM. The “nH (Hill slope, inhibition)” value (human GluN1/GluN2D [4]) was 0.9, the “nH (Hill slope, inhibition)” value (human GluN1/GluN2A; -40 mV) was 1.0 and the “nH (Hill slope, inhibition)” value (rat GluN1/GluN2C; [14]) was 1.0.
For COc1ccc2nc(/C=C/c3cccc([N+](=O)[O-])c3)n(-c3ccc(C(=O)O)cc3)c(=O)c2c1 [QNZ46, (E)-4-(6-methoxy-2-(3-nitrostyryl)-4-oxoquinazolin-3(4H)-yl)-benzoic acid], the IC50 (rat GluN1/GluN2B [1]) was > 100 µM, the “nH (Hill slope, inhibition)” value (human GluN1/GluN2C; [15]) was 1.0 and the IC50 (human GluN1/GluN2B) was > 100 µM. For the same compound, the “nH (Hill slope, inhibition)” value (rat GluN1/GluN2D [3]; [13]) was 1.0, the “nH (Hill slope, inhibition)” value (human GluN1/GluN2D [4]; [16]) was 1.0 and the “IC50 fold higher at rat compared to human” value (rat GluN1/GluN2C; GluN1/GluN2C, rat vs human) was 1.2 fold. The “nH (Hill slope, inhibition)” value (rat GluN1/GluN2C; [14]) was 1.2.
For NC(=NCc1ccc(Cl)cc1)SCCCc1cnc[nH]1 [clobenpropit, N-(4-chlorobenzyl)-S-[3-(4(5)-imidazolyl)propyl]isothiourea dihydrobromide], the “nH (Hill slope, inhibition)” value (rat GluN1/GluN2B [1]; rat GluN1/GluN2B, -40 mV) was 1.3, the “nH (Hill slope, inhibition)” value (human GluN1/GluN2C; [15]) was 0.9 and the “nH (Hill slope, inhibition)” value (human GluN1/GluN2B) was 1.0. The “IC50 fold higher at rat compared to human” value (rat GluN1/GluN2A [2]; GluN1/GluN2A, rat vs human) was 1.9 fold, the “nH (Hill slope, inhibition)” value (rat GluN1/GluN2D [3]; [13]) was 0.9 and the “nH (Hill slope, inhibition)” value (human GluN1/GluN2D [4]; [16]) was 1.0. The “nH (Hill slope, inhibition)” value (human GluN1/GluN2A; -40 mV) was 1.0 and the “nH (Hill slope, inhibition)” value (rat GluN1/GluN2C; [14]) was 0.8.

— article PMC3335988 (Neurochemistry international, 2011)
